Test results taken from patent publication US6914045B2, “Glycopeptide antibiotics” (Wyeth Holdings Corporation, priority 2001, dated 2005).
Converted amounts (≈) assume the structure as drawn.

Legend:
Assay in all cases: in vitro antibacterial evaluation, MIC by broth dilution
Assay type in all cases: cell-based
Enterococcus sp. = conditions: broth dilution, 18 hours at 35° C.
Summary of the method: (§1)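 Following National Committee for Clinical Laboratory Standards recommendations (M7-A2), susceptibility was measured by dilution in Muller-Hinton II […]. Bacteria were seeded at 5×10^5 CFU/mL against compound concentrations from 64 down to 0.06 μg/mL.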

Escherichia coli = conditions: 18 hours at 35° C.
Summary of the method: as §1

Staphylococcus sp. = conditions: broth dilution, 18 hours at 35° C.
Summary of the method: as §1

Streptococcus sp. = conditions: broth dilution, 18 hours at 35° C.
Summary of the method: as §1

CC(C)=CCCC(C)CC1OCC2OC(OC3C(CO)OC(Oc4ccc(CC5NC(=O)C(C(C)c6ccccc6)NC(=O)CNC(=O)C(CO)NC(=O)C(C(O)C6CNC(=N)N6C6OC(CO)C(O)C(O)C6O)NC(=O)C(C(O)C6CNC(=N)N6)NC5=O)cc4)C(O)C3O)C(O)C(O)C2O1 (stereo not shown) [Example 126]
MIC Enterococcus avium (GC 4558) (Enterococcus sp.; Enterococcus avium (GC 4558)): 8 mg/L (≈ 5.59 µM)
MIC Enterococcus faecalis (ATCC 29212) (Enterococcus sp.; Enterococcus faecalis (ATCC 29212)): 8 mg/L (≈ 5.59 µM)
MIC Enterococcus faecalis (GC 2242) (Enterococcus sp.; Enterococcus faecalis (GC 2242)): 8 mg/L (≈ 5.59 µM)
MIC Enterococcus faecalis (GC 2691) (Enterococcus sp.; Enterococcus faecalis (GC 2691)): 8 mg/L (≈ 5.59 µM)
MIC Enterococcus faecalis (GC 3059) (Enterococcus sp.; Enterococcus faecalis (GC 3059)): 8 mg/L (≈ 5.59 µM)
MIC Enterococcus faecalis (GC 4552) (Enterococcus sp.; Enterococcus faecalis (GC 4552)): 8 mg/L (≈ 5.59 µM)
MIC Enterococcus faecalis (GC 4553) (Enterococcus sp.; Enterococcus faecalis (GC 4553)): 8 mg/L (≈ 5.59 µM)
MIC Enterococcus faecalis (GC 4554) (Enterococcus sp.; Enterococcus faecalis (GC 4554)): 8 mg/L (≈ 5.59 µM)
MIC Enterococcus faecalis (GC 6189) (Enterococcus sp.; Enterococcus faecalis (GC 6189)): 8 mg/L (≈ 5.59 µM)
MIC Enterococcus faecium (GC 2243) (Enterococcus sp.; Enterococcus faecium (GC 2243)): 8 mg/L (≈ 5.59 µM)
MIC Enterococcus faecium (GC 4556) (Enterococcus sp.; Enterococcus faecium (GC 4556)): 8 mg/L (≈ 5.59 µM)
MIC Enterococcus faecium (GC 4557) (Enterococcus sp.; Enterococcus faecium (GC 4557)): 8 mg/L (≈ 5.59 µM)
MIC Enterococcus faecalis (ATCC 29212) (Enterococcus sp.; strain ATCC 29212): 8 mg/L (≈ 5.59 µM)
MIC Enterococcus faecalis (GC 2242) (Enterococcus sp.; strain GC 2242): 8 mg/L (≈ 5.59 µM)
MIC Enterococcus faecium (GC 2243) (Enterococcus sp.; strain GC 2243): 8 mg/L (≈ 5.59 µM)
MIC Enterococcus faecalis (GC 2691) (Enterococcus sp.; strain GC 2691): 8 mg/L (≈ 5.59 µM)
MIC Enterococcus faecalis (GC 3059) (Enterococcus sp.; strain GC 3059): 8 mg/L (≈ 5.59 µM)
MIC Enterococcus faecalis (GC 4552) (Enterococcus sp.; strain GC 4552): 8 mg/L (≈ 5.59 µM)
MIC Enterococcus faecalis (GC 4553) (Enterococcus sp.; strain GC 4553): 8 mg/L (≈ 5.59 µM)
MIC Enterococcus faecalis (GC 4554) (Enterococcus sp.; strain GC 4554): 8 mg/L (≈ 5.59 µM)
MIC Enterococcus faecium (GC 4556) (Enterococcus sp.; strain GC 4556): 8 mg/L (≈ 5.59 µM)
MIC Enterococcus faecium (GC 4557) (Enterococcus sp.; strain GC 4557): 8 mg/L (≈ 5.59 µM)
MIC Enterococcus avium (GC 4558) (Enterococcus sp.; strain GC 4558): 8 mg/L (≈ 5.59 µM)
MIC Enterococcus faecalis (GC 6189) (Enterococcus sp.; strain GC 6189): 8 mg/L (≈ 5.59 µM)
MIC Escherichia coli (ATCC 25922) (Escherichia coli; strain ATCC 25922): 64 mg/L (≈ 44.7 µM)
MIC Escherichia coli (GC 4559) (Escherichia coli; strain GC 4559): 64 mg/L (≈ 44.7 µM)
MIC Escherichia coli (GC 4560) (Escherichia coli; strain GC 4560): 8 mg/L (≈ 5.59 µM)
MIC Staphylococcus aureus (ATCC 29213) (Staphylococcus sp.): 8 mg/L (≈ 5.59 µM)
MIC Staphylococcus aureus (GC 1131) (Staphylococcus sp.): 8 mg/L (≈ 5.59 µM)
MIC Staphylococcus aureus (GC 3051) (Staphylococcus sp.): 8 mg/L (≈ 5.59 µM)
MIC Staphylococcus aureus (GC 3053) (Staphylococcus sp.): 8 mg/L (≈ 5.59 µM)
MIC Staphylococcus aureus (GC 4541) (Staphylococcus sp.): 8 mg/L (≈ 5.59 µM)
MIC Staphylococcus aureus (GC 4542) (Staphylococcus sp.): 8 mg/L (≈ 5.59 µM)
MIC Staphylococcus aureus (GC 4544) (Staphylococcus sp.): 8 mg/L (≈ 5.59 µM)
MIC Staphylococcus aureus (GC 4545) (Staphylococcus sp.): 8 mg/L (≈ 5.59 µM)
MIC Staphylococcus aureus (GC 1131) (Staphylococcus sp.; inoculum 5×10^5 CFU/mL, strain GC 1131): 8 mg/L (≈ 5.59 µM)
MIC Staphylococcus aureus (ATCC 29213) (Staphylococcus sp.; strain ATCC 29213): 8 mg/L (≈ 5.59 µM)
MIC Staphylococcus aureus (GC 3051) (Staphylococcus sp.; strain GC 3051): 8 mg/L (≈ 5.59 µM)
MIC Staphylococcus aureus (GC 3053) (Staphylococcus sp.; strain GC 3053): 8 mg/L (≈ 5.59 µM)
MIC Staphylococcus aureus (GC 4541) (Staphylococcus sp.; strain GC 4541): 8 mg/L (≈ 5.59 µM)
MIC Staphylococcus aureus (GC 4542) (Staphylococcus sp.; strain GC 4542): 8 mg/L (≈ 5.59 µM)
MIC Staphylococcus aureus-SMITH (GC 4543) (Staphylococcus sp.; strain GC 4543): 8 mg/L (≈ 5.59 µM)
MIC Staphylococcus aureus (GC 4544) (Staphylococcus sp.; strain GC 4544): 8 mg/L (≈ 5.59 µM)
MIC Staphylococcus aureus (GC 4545) (Staphylococcus sp.; strain GC 4545): 8 mg/L (≈ 5.59 µM)
MIC Staphylococcus haemolyticus (GC 4546) (Staphylococcus sp.; strain GC 4546): 8 mg/L (≈ 5.59 µM)
MIC Coagulase Negative Staphylococcus (GC 4547) (Staphylococcus sp.; strain GC 4547): 8 mg/L (≈ 5.59 µM)
MIC Coagulase Negative Staphylococcus (GC 4548) (Staphylococcus sp.; strain GC 4548): 8 mg/L (≈ 5.59 µM)
MIC Coagulase Negative Staphylococcus (GC 4549) (Staphylococcus sp.; strain GC 4549): 8 mg/L (≈ 5.59 µM)
MIC Coagulase Negative Staphylococcus (GC 4551) (Staphylococcus sp.; strain GC 4551): 8 mg/L (≈ 5.59 µM)
MIC Coagulase Negative Staphylococcus (GC 6257) (Staphylococcus sp.; strain GC 6257): 8 mg/L (≈ 5.59 µM)
MIC Staphylococcus aureus-SMITH (GC 4543) (Staphylococcus sp.; strain SMITH GC 4543): 8 mg/L (≈ 5.59 µM)
MIC Streptococcus agalactiae (GC 4564) (Streptococcus sp.; Streptococcus agalactiae (GC 4564)): 1 mg/L (≈ 0.699 µM)
MIC Streptococcus pneumoniae (ATCC 6301) (Streptococcus sp.; Streptococcus pneumoniae (ATCC 6301)): <0.06 mg/L
MIC Streptococcus pneumoniae (GC 1894) (Streptococcus sp.; Streptococcus pneumoniae (GC 1894)): <0.06 mg/L
MIC Streptococcus pneumoniae (GC 4565) (Streptococcus sp.; Streptococcus pneumoniae (GC 4565)): <0.06 mg/L
MIC Streptococcus pyogenes (GC 4563) (Streptococcus sp.; Streptococcus pyogenes (GC 4563)): 0.12 mg/L (≈ 0.0838 µM)
MIC Streptococcus pneumoniae (ATCC 6301) (Streptococcus sp.; strain ATCC 6301): <0.06 mg/L
MIC Streptococcus pneumoniae (GC 1894) (Streptococcus sp.; strain GC 1894): <0.06 mg/L
MIC Streptococcus pyogenes (GC 4563) (Streptococcus sp.; strain GC 4563): 0.12 mg/L (≈ 0.0838 µM)
MIC Streptococcus agalactiae (GC 4564) (Streptococcus sp.; strain GC 4564): 1 mg/L (≈ 0.699 µM)
MIC Streptococcus pneumoniae (GC 4565) (Streptococcus sp.; strain GC 4565): <0.06 mg/L
